# Measurements reported in patent US20240368133A1, “Compounds for the Treatment of Pain, in Particular, Neuropathic Pain, and/or Other Diseases or Disorders that are Associated with AT2R and/or AT2R Mediated Signaling” (Confo Therapeutics N.V., priority 2021, published 2024).
# Where two headings read alike, the source gives them in different places.
# Experiments:
# Format in all cases: in vitro ADME
# [1] = Liver microsomal stability, rat; settings: male, pH 7.4, liver microsomes
# [2] = target: CYP2D6 (Homo sapiens (Human), UniProt P10635); assay: CYP inhibition, CYP2D6; settings: test compound at 10 μM, read-out: % Inhibition (PIN) 2D6
# CYP2D6, sequence (P10635 whole entry): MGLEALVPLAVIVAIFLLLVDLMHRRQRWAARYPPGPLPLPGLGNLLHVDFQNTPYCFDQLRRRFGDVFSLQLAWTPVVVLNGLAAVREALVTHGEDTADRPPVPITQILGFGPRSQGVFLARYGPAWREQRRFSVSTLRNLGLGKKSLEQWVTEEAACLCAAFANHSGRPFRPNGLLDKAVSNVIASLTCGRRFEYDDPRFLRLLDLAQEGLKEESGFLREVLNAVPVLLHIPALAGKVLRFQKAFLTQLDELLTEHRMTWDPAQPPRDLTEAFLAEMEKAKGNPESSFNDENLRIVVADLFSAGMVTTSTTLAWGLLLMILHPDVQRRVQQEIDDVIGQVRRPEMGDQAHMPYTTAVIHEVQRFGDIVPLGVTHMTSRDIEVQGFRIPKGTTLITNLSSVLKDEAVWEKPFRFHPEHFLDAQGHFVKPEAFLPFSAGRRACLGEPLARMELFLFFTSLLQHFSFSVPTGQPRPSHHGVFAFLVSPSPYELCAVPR
# Procedure: The aim of this assay is to determine the inhibitory potential of a test compound. A major concern for drug-drug-interaction is cytochrome P450 inhibition. Reversible CYP inhibition was determined in human liver microsomes using specific probe substrates for human cytochrome P450 isoenzymes CYP1A2, 2C9, 2C19, 2D6 and 3A4. […]
# (§1) A 10 mM stock solution of test compound is prepared in methanol. This stock is further serially diluted 1:3 in methanol and then added to mixture containing 50 mM potassium phosphate buffer pH7.4, human liver microsomes (BD Gentest) and probe substrate. After pre-warming 5 min at 37° C., the reaction is started by adding co-factor mix ([…] glucose-6-phosphate, 1.7 mg/mL NADP, 6 U/mL of glucose-6-phosphate dehydrogenase), resulting in a final concentration of test compound at 10 μM (2% MeOH).
# (§2) Final concentrations of co-factor mix components are as follows: 1.56 mg/mL glucose-6-phosphate, 0.34 mg/mL NADP, 1.2 U/mL of glucose-6-phosphate dehydrogenase.
# (§3) After incubation at 37° C., the reaction (aliquot of 50 μL) is terminated with 150 μL CH3CN:MeOH (2:1) solution with internal standard (warfarin for 2C9, diclofenac for all other tested isoforms). Samples are centrifuged and the supernatant fractions analyzed by LC-MS/MS.
# (§4) The instrument responses (ratio of test compound and internal standard peak areas) are referenced to those for solvent controls (assumed as 100%) in order to determine the percentage reduction in probe metabolism. Percent of control activity vs. concentration plots are generated and fitted using GraphPad Prism software to generate IC50.
# [3] = target: CYP3A4 (Homo sapiens (Human), UniProt P08684); assay: CYP inhibition, CYP3A4; settings: test compound at 10 μM
# CYP3A4, sequence (P08684 whole entry): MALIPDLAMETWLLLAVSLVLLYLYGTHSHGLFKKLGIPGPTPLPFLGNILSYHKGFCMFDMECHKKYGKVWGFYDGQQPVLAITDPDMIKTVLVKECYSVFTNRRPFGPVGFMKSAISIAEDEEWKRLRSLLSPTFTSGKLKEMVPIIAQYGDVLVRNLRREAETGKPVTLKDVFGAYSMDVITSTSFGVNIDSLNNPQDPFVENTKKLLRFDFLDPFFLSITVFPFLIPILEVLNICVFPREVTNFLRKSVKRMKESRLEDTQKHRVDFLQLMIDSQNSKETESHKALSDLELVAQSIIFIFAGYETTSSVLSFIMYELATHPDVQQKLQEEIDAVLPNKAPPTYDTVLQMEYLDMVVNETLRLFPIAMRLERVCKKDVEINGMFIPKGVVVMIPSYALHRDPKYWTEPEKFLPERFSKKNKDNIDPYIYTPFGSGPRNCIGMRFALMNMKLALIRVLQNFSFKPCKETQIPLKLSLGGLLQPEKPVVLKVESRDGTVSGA
# Procedure: The aim of this assay is to determine the inhibitory potential of a test compound. A major concern for drug-drug-interaction is cytochrome P450 inhibition. Reversible CYP inhibition was determined in human liver microsomes using specific probe substrates for human cytochrome P450 isoenzymes CYP1A2, 2C9, 2C19, 2D6 and 3A4.
# The potential for CYP450 inhibition was assessed by performing in vitro inhibition studies using fluorogenic CYP450 substrates with the corresponding CYP450 enzymes and NADPH regeneration system (Vivid CYP450 Screening Kits) with some minor changes to the manufacturer's protocols. The fluorescent signal produced from reaction is directly proportional to the cytochrome P450 activity. In the cases when tested compounds interfere with the CYP450 enzyme-substrate reaction, the fluorescent signal decreases. In brief, the tested compounds were first dissolved in DMSO at 100× concentration (1 mM), and diluted in buffer to 2.5× concentration (25 μM). Then the 2.5× compound solutions were mixed with the Master Pre-mix consisting of Human CYP450+Oxidoreductase and NADP+Regeneration System (glucose-6-phosphate and glucose-6-phosphate dehydrogenase). After 10 minutes pre-incubation, the enzymatic reaction was initiated by the addition of a mix of NADPH and the appropriate CYP450 substrates. The plate was incubated for the desired reaction time (25 min for CYP1A2, CYP2C9, CYP2D6, and CYP3A4, 60 min for CYP2C19) after which Stop Reagent was added and fluorescence measured using SpectraMax Paradigm Multi-Mode Microplate Reader. All test points were performed in quadruplicates at concentration 10 μM (1% DMSO).
# as §1, §2, §3, §4
# [4] = pH 7.4, probe substrate Midazolam (M), human liver microsomes, read-out: % Inhibition (PIN) 3A4
# [5] = pH 7.4, probe substrate Testosterone (T), human liver microsomes, read-out: % Inhibition (PIN) 3A4 (T)
Compound,microsomal CLint [1] [µL/min/mg],inhibition at 10 µM [2] [%],"inhibition at 10 µM ([3]; human, probe not marked, read-out: % Inhibition (PIN) 3A4) [%]","inhibition at 10 µM [3, 4] [%]","inhibition at 10 µM [3, 5] [%]"
"CCC1CN(c2cc(CC(C)C)cc(F)c2-c2nn[nH]n2)CCN1Cc1cccnn1 (centres unmarked) [Compound A-178, 3-[[2-ethyl-4-[3-fluoro-5-isobutyl-2-(2H-tetrazol-5-yl)phenyl]piperazin-1-yl]methyl]pyridazine]",5,25.6,8,,
"CC(C)Cc1cc(F)c(-c2nn[nH]n2)c(N2CCN(Cc3ccccn3)[C@@H](C)C2)c1 [Compound A-217, (2S)-4-[3-fluoro-5-isobutyl-2-(2H-tetrazol-5-yl)phenyl]-2-methyl-1-(2-pyridylmethyl)piperazine]",< 17.3,68,,73,25
"Cc1cnc(CN2CCN(c3cc(CC(C)C)cc(F)c3-c3nn[nH]n3)C[C@@H]2C)s1 [Compound A-223, 2-[[(2S)-4-[3-fluoro-5-isobutyl-2-(2H-tetrazol-5-yl)phenyl]-2-methyl-piperazin-1-yl]methyl]-5-methyl-thiazole]",24.1,15,,82,28
